Source: US20150191462A1, “PYRROLIDINE DERIVATIVES AND THEIR USE AS COMPLEMENT PATHWAY MODULATORS” (priority 2012, published 2015)

biological target: Recombinant human factor D (Homo sapiens, UniProt P00746); test: Human Complement Factor D Assay: Method 1; assay type: biochemical; conditions: Factor D inhibition, 10 nM factor D, Z-Lys-thiobenzyl substrate, fluorescence readout
Description: Human Complement Factor D Assay: Method 1 Recombinant human factor D (expressed in E. coli and purified using standard methods) at 10 nM concentration is incubated with test compound at various concentrations for 1 hour at room temperature in 0.1 M Hepes buffer, pH 7.5, containing 1 mM MgCl2, 1 M NaCl and 0.05% CHAPS. […] The increase in fluorescence is recorded at excitation of 485 nm and emission at 535 nm in a microplate spectrofluorimeter. IC50 values are calculated from percentage of inhibition of complement factor D-activity as a function of test compound concentration.

Chain of Recombinant human factor D (P00746 26-253): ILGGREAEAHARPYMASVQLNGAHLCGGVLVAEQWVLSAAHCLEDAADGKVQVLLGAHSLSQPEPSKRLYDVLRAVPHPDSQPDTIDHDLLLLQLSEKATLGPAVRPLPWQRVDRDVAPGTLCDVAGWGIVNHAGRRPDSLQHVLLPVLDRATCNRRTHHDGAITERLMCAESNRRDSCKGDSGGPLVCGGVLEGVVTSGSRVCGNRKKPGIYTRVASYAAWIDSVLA

| SMILES | IC50 |
| --- | --- |
| CC(=O)c1nn(CC(=O)N2[C@@H]3C[C@@H]3C[C@H]2C(=O)Nc2cnc(C)c(Br)n2)c2cnccc12 [Example 12, (1R,3S,5R)-2-[2-(3-Acetyl-pyrazolo[3,4-c]pyridin-1-yl)-acetyl]-2-aza-bicyclo[3.1.0]hexane-3-carboxylic acid (6-bromo-5-methyl-pyrazin-2-yl)-amide] | 16 nM |
| CC(=O)c1nn(CC(=O)N2[C@@H]3C[C@@H]3C[C@H]2C(=O)Nc2cncc(C(F)(F)F)n2)c2cnccc12 [Example 17, (1R,3S,5R)-2-[2-(3-Acetyl-pyrazolo[3,4-c]pyridin-1-yl)-acetyl]-2-aza-bicyclo[3.1.0]hexane-3-carboxylic acid (6-trifluoromethyl-pyrazin-2-yl)-amide] | 64 nM |
| NC(=O)c1nn(CC(=O)N2CC[C@H](F)[C@H]2C(=O)Nc2cccc(Br)n2)c2ccccc12 [Example 27, 1-(2-((2R,3S)-2-((6-bromopyridin-2-yl)carbamoyl)-3-fluoropyrrolidin-1-yl)-2-oxoethyl)-1H-indazole-3-carboxamide] | 80 nM |
| CC(=O)c1nn(CC(=O)N2C[C@H]3C[C@H]3[C@H]2C(=O)Nc2cccc(Br)n2)c2cnccc12 [Example 15, (1R,2S,5S)-3-[2-(3-Acetyl-pyrazolo[3,4-c]pyridin-1-yl)-acetyl]-3-aza-bicyclo[3.1.0]hexane-2-carboxylic acid (6-bromo-pyridin-2-yl)-amide] | 14 nM |
| Cc1cc2c(C(N)=O)nn(CC(=O)N3[C@@H]4C[C@@H]4C[C@H]3C(=O)Nc3cncc(C(F)(F)F)n3)c2c(C)n1 [Example 30, 5,7-dimethyl-1-(2-oxo-2-((1R,3S,5R)-3-((6-(trifluoromethyl)pyrazin-2-yl)carbamoyl)-2-azabicyclo[3.1.0]hexan-2-yl)ethyl)-1H-pyrazolo[3,4-c]pyridine-3-carboxamide] | 80 nM |
| CC(=O)c1nn(CC(=O)N2[C@@H]3C[C@@H]3C[C@H]2C(=O)Nc2cncc(Br)n2)c2cnccc12 [Example 14, (1R,3S,5R)-2-[2-(3-Acetyl-pyrazolo[3,4-c]pyridin-1-yl)-acetyl]-2-aza-bicyclo[3.1.0]hexane-3-carboxylic acid (6-bromo-pyrazin-2-yl)-amide] | 11 nM |
| NC(=O)n1cc(NC(=O)N2[C@@H]3C[C@@H]3C[C@H]2C(=O)Nc2cncc(Br)n2)c2ccccc21 [Example 31, (1R,3S,5R)-2-Aza-bicyclo[3.1.0]hexane-2,3-dicarboxylic acid 3-[(6-bromo-pyrazin-2-yl)-amide]2-[(1-carbamoyl-1H-indol-3-yl)-amide]] | 4 nM |

Continued by falling IC50, values first:

| IC50 | SMILES |
| --- | --- |
| 9 nM | CC(=O)c1nn(CC(=O)N2C[C@H](F)C[C@H]2C(=O)Nc2cccc(Br)n2)c2cnccc12 [Example 13, (2S,4R)-1-[2-(3-Acetyl-pyrazolo[3,4-c]pyridin-1-yl)-acetyl]-4-fluoro-pyrrolidine-2-carboxylic acid (6-bromo-pyridin-2-yl)-amide] |
| 8 nM | NC(=O)c1nn(CC(=O)N2C[C@H](F)[C@H](F)[C@H]2C(=O)Nc2cccc(Br)n2)c2ccccc12 [Example 23, 1-{2-[(2R,3R,4S)-2-(6-Bromo-pyridin-2-ylcarbamoyl)-3,4-difluoro-pyrrolidin-1-yl]-2-oxo-ethyl}-1H-indazole-3-carboxylic acid amide] |
| 5 nM | Cc1ncc(NC(=O)[C@@H]2C[C@H]3C[C@H]3N2C(=O)Nc2cn(C(N)=O)c3ccccc23)nc1Br [Example 32, (1R,3S,5R)-2-Aza-bicyclo[3.1.0]hexane-2,3-dicarboxylic acid 3-[(6-bromo-5-methyl-pyrazin-2-yl)-amide] 2-[(1-carbamoyl-1H-indol-3-yl)-amide]] |
